Experimental findings from US9815842B2, “Pyrazolo pyrimidine derivatives and their use as MALT1 inhibitors” (Novartis AG, priority 2014, dated 2017) are described below.

The term pIC50 denotes the IC50 on a negative log10 scale, so that one unit is a factor of ten.

Experiment [1] addresses C-domain of MALT1 (amino acids 329-824) (Homo sapiens (Human), UniProt Q9UDY8). Briefly: MALT1 biochemical assay (fluorescence lifetime enzyme activity assay). Conditions: 60 min pre-incubation, 2.5 nM enzyme, 1 μM peptide substrate.
The next experiment has as its system Human IL2 promoter. Briefly: Human IL2 promoter reporter gene assay (RGA) in Jurkat cells. Type of experiment: cell-based. Conditions: Jurkat clone K22 290_H23, anti-CD28 mAb + PMA stimulation 5.5 h. The essentials:
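Transfected Jurkat clone K22 290_H23 cells were pre-incubated with compounds 30 min at 37 °C, then stimulated 5.5 h with anti-CD28 mAb (15E8, 3 μg/ml) plus PMA (1 μg/ml). IL2-promoter reporter activity was read as BriteLitePlus bioluminescence.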
On the technique in general: In a reporter assay the amount or activity of a reporter protein is the signal.

Experiment [2] deals with cIAP2-MALT1 fusion protein (Homo sapiens, UniProt Q9UDY8). Briefly: cell-based.
Chain of cIAP2-MALT1 fusion protein (Q9UDY8 2-824 limits assumed): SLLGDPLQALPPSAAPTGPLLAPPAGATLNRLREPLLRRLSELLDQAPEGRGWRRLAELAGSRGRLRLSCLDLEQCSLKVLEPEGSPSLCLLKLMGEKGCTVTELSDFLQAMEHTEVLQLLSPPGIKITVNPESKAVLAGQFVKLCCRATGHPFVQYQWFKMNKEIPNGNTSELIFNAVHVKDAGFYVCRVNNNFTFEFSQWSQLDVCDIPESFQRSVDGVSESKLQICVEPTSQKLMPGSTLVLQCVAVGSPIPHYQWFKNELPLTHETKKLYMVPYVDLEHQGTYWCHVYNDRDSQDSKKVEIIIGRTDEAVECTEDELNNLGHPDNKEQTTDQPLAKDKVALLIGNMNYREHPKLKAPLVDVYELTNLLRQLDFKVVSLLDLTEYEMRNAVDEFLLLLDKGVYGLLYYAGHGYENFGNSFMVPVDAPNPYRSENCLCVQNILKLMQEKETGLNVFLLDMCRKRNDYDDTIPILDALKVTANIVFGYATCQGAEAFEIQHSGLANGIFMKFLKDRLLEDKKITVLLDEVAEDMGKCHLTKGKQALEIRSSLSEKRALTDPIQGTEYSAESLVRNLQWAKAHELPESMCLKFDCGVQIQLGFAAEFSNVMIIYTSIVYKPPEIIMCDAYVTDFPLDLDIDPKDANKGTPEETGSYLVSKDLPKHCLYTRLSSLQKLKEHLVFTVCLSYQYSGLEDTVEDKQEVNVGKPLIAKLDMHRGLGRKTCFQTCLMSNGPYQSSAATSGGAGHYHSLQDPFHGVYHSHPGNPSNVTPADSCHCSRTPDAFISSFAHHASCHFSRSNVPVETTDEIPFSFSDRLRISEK
Protocol: For the measurement of compound inhibition, 0.25 μl of test compound were mixed with 12.5 μl of enzyme in wells of the 384-well plates, and incubated for 60 minutes at room temperature (22° C.). After that, 12.5 μl of substrate was added, and the enzymatic reaction was allowed to proceed for 60 minutes at room temperature (22° C.). […] The DMSO content was between 0.9 and 1% (v/v). […] The IC50 value was calculated from the plot of percentage inhibition versus inhibitor concentration using non-linear regression analysis software (Origin, OriginLab Corporation, USA). The data were fitted using a 4 Parameter Logistic Model, characterized by the following equation: y=A2+(A1−A2)/(1+(x/IC50)^p) where y is the %-inhibition at the inhibitor concentration, x. A1 is the lowest inhibition value, and A2 the maximum inhibition value.

Molecules are shown by their SMILES. pIC50: −log10 of the molar value.

Chain of C-domain of MALT1 (amino acids 329-824) (Q9UDY8 329-824): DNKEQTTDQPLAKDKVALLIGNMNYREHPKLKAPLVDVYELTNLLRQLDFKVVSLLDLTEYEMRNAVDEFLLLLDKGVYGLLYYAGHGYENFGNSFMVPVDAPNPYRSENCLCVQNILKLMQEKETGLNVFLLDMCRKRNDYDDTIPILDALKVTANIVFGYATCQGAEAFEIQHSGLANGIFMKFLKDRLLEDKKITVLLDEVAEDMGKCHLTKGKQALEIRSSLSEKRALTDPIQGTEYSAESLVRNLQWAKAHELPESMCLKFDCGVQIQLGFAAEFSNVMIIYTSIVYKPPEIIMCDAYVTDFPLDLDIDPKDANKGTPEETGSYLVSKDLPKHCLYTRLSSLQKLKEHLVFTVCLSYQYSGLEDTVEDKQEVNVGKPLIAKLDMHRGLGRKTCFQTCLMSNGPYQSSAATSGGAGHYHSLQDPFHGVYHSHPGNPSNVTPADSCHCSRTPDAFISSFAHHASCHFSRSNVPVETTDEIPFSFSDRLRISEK

Take `COC(C)(C)c1c(NC(=O)Nc2cnc(-n3nccn3)c(Cl)c2)cnc2cc(Cl)nn12` [Example 14, 1-(5-chloro-6-(2H-1,2,3-triazol-2-yl)pyridin-3-yl)-3-(2-chloro-7-(2-methoxypropan-2-yl)pyrazolo[1,5-a]pyrimidin-6-yl)urea]: the results for the pIC50 (in experiment [1]; in the experiment with Human IL2 promoter; in experiment [2]) were 8.52, 7.17 and 7.31, respectively.

Consider `COc1ncc(NC(=O)Nc2cnc3cc(Cl)nn3c2C(C)C)cc1Cl` [Example 18, 1-(5-chloro-6-methoxypyridin-3-yl)-3-(2-chloro-7-isopropylpyrazolo[1,5-a]pyrimidin-6-yl)urea], for which the negative logarithm of the IC50 (pIC50) in experiment [1] is 8.52; in the experiment on Human IL2 promoter, 6.68; in experiment [2] it was 6.83.

Take `Cc1ncn(-c2ccc(NC(=O)Nc3cnc4cc(Cl)nn4c3C(C)C)cc2C#N)n1` [Example 19, 1-(2-chloro-7-isopropylpyrazolo[1,5-a]pyrimidin-6-yl)-3-(3-cyano-4-(3-methyl-1H-1,2,4-triazol-1-yl)phenyl)urea]: the pIC50 in experiment [1] was 8.52; with Human IL2 promoter, 6.83; in experiment [2], 7.04.

As to `CC(C)c1c(NC(=O)Nc2ccc(-n3nccn3)c(Cl)c2)cnc2cc(Cl)nn12` [Example 20, 1-(3-chloro-4-(2H-1,2,3-triazol-2-yl)phenyl)-3-(2-chloro-7-isopropylpyrazolo[1,5-a]pyrimidin-6-yl)urea], the negative logarithm of the IC50 (pIC50) in experiment [1] is 8.52; in the experiment with Human IL2 promoter, 6.61; in experiment [2], 7.00.

Regarding `Cc1cnn(-c2ncc(NC(=O)Nc3cnc4cc(Cl)nn4c3C(C)C)cc2Cl)n1` [Example 22, 1-(5-chloro-6-(4-methyl-2H-1,2,3-triazol-2-yl)pyridin-3-yl)-3-(2-chloro-7-isopropylpyrazolo[1,5-a]pyrimidin-6-yl)urea], the pIC50 was 8.40 in experiment [1], 7.00 in the experiment with Human IL2 promoter and 7.13 in experiment [2].

Regarding `CC(C)c1c(NC(=O)Nc2cc(Cl)c(=O)n(C)c2-n2cccn2)cnc2cc(Cl)nn12` [Example 24, 1-(5-chloro-1-methyl-6-oxo-2-(1H-pyrazol-1-yl)-1,6-dihydropyridin-3-yl)-3-(2-chloro-7-isopropylpyrazolo[1,5-a]pyrimidin-6-yl)urea], the pIC50 was 8.30 in experiment [1], 6.67 in the experiment on Human IL2 promoter and 6.88 in experiment [2].

Take `CC(C)c1c(NC(=O)Nc2cncc(Br)c2)cnc2cc(Cl)nn12` [Example 26, 1-(5-bromopyridin-3-yl)-3-(2-chloro-7-isopropylpyrazolo[1,5-a]pyrimidin-6-yl)urea]: the pIC50 was 8.30 in experiment [1], 6.87 in the experiment on Human IL2 promoter and 7.07 in experiment [2].

Consider `CC(C)c1c(NC(=O)Nc2cnc(N3CCCS3(=O)=O)c(C(F)(F)F)c2)cnc2cc(Cl)nn12` [Example 27, 1-(2-chloro-7-isopropylpyrazolo[1,5-a]pyrimidin-6-yl)-3-(6-(1,1-dioxidoisothiazolidin-2-yl)-5-(trifluoromethyl)pyridin-3-yl)urea], for which the results for the negative logarithm of the IC50 (pIC50) (in experiment [1]; in the experiment on Human IL2 promoter; in experiment [2]) were 8.22, 6.61 and 7.27, respectively.

Take `CC(C)c1c(NC(=O)Nc2cc(Cl)c(-n3nccn3)c(Cl)c2)cnc2cc(Cl)nn12` [Example 30, 1-(2-chloro-7-isopropylpyrazolo[1,5-a]pyrimidin-6-yl)-3-(3,5-dichloro-4-(2H-1,2,3-triazol-2-yl)phenyl)urea]: the figures for the negative logarithm of the IC50 (pIC50) (in experiment [1]; in the experiment with Human IL2 promoter; in experiment [2]) were 8.52, 6.29 and 6.42, respectively.

Regarding `CC(C)c1c(NC(=O)Nc2cc(C(F)(F)F)cn(C)c2=O)cnc2cc(Cl)nn12` [Example 32, 1-(2-chloro-7-isopropylpyrazolo[1,5-a]pyrimidin-6-yl)-3-(1-methyl-2-oxo-5-(trifluoromethyl)-1,2-dihydropyridin-3-yl)urea], the pIC50 in experiment [1] was 7.72; in the experiment on Human IL2 promoter, 6.66; in experiment [2] it was 6.67.

`O=C(Nc1cnc(-n2nccn2)c(Cl)c1)Nc1cnc2cc(Cl)nn2c1C1CCC1` [Example 38, 1-(5-chloro-6-(2H-1,2,3-triazol-2-yl)pyridin-3-yl)-3-(2-chloro-7-cyclobutylpyrazolo[1,5-a]pyrimidin-6-yl)urea]: the pIC50 is 8.30 in experiment [1], 6.84 in the experiment with Human IL2 promoter and 6.75 in experiment [2].

For `COCCO[C@@H](C)c1c(NC(=O)Nc2cnc(OC)c(Cl)c2)cnc2cc(Cl)nn12` [Example 40, (S)-1-(5-chloro-6-methoxypyridin-3-yl)-3-(2-chloro-7-(1-(2-methoxyethoxy)ethyl)pyrazolo[1,5-a]pyrimidin-6-yl)urea], the pIC50 in experiment [1] was 8.22; with Human IL2 promoter, 7.37; in experiment [2], 6.95.

Turning to `COCC(OC)c1c(NC(=O)Nc2cnc(-n3nccn3)c(Cl)c2)cnc2cc(Cl)nn12` (stereo not drawn) [Example 56, 1-(5-chloro-6-(2H-1,2,3-triazol-2-yl)pyridin-3-yl)-3-(2-chloro-7-(1,2-dimethoxyethyl)pyrazolo[1,5-a]pyrimidin-6-yl)urea], the negative logarithm of the IC50 (pIC50) was 8.30 in experiment [1], 7.02 with Human IL2 promoter and 6.88 in experiment [2].

With `Cc1c(NC(=O)Nc2cnc(-n3nccn3)c(Cl)c2)cnc2cc(Cl)nn12` [Example 62, 1-(5-chloro-6-(2H-1,2,3-triazol-2-yl)pyridin-3-yl)-3-(2-chloro-7-methylpyrazolo[1,5-a]pyrimidin-6-yl)urea], the pIC50 in experiment [1] was 7.38; in the experiment with Human IL2 promoter, 6.58; in experiment [2], 6.46.

`CO[C@@H](C)c1c(NC(=O)Nc2cnc(-n3nccn3)c(Cl)c2)cnc2cc(C)nn12` [Example 71, (S)-1-(5-chloro-6-(2H-1,2,3-triazol-2-yl)pyridin-3-yl)-3-(7-(1-methoxyethyl)-2-methylpyrazolo[1,5-a]pyrimidin-6-yl)urea]: the pIC50 is 8.30 in experiment [1], 7.85 in the experiment with Human IL2 promoter and 7.10 in experiment [2].

For `Cc1cc2ncc(NC(=O)Nc3cnc(-n4nccn4)c(Cl)c3)c(C3(C)CC3)n2n1` [Example 72, 1-(5-chloro-6-(2H-1,2,3-triazol-2-yl)pyridin-3-yl)-3-(2-methyl-7-(1-methylcyclopropyl)pyrazolo[1,5-a]pyrimidin-6-yl)urea], the pIC50 in experiment [1] is 8.52; in the experiment with Human IL2 promoter, 6.85; in experiment [2] it was 6.75.

In the case of `COc1ncc(NC(=O)Nc2cnc3cc(C)nn3c2C2(C)CC2)cc1Cl` [Example 73, 1-(5-chloro-6-methoxypyridin-3-yl)-3-(2-methyl-7-(1-methylcyclopropyl)pyrazolo[1,5-a]pyrimidin-6-yl)urea], the negative logarithm of the IC50 (pIC50) in experiment [1] is 7.92; with Human IL2 promoter, 7.04; in experiment [2], 6.79.

Consider `CO[C@H](c1c(NC(=O)Nc2cnc(-n3nccn3)c(Cl)c2)cnc2cc(Cl)nn12)C(C)C` [Example 74, (S)-1-(5-chloro-6-(2H-1,2,3-triazol-2-yl)pyridin-3-yl)-3-(2-chloro-7-(1-methoxy-2-methylpropyl)pyrazolo[1,5-a]pyrimidin-6-yl)urea], for which the negative logarithm of the IC50 (pIC50) in experiment [1] was 8.70; with Human IL2 promoter, 7.49; in experiment [2], 7.52.

Turning to `CO[C@H](c1c(NC(=O)Nc2ccnc(C(F)(F)F)c2)cnc2cc(Cl)nn12)C(C)C` [Example 75, (S)-1-(2-chloro-7-(1-methoxy-2-methylpropyl)pyrazolo[1,5-a]pyrimidin-6-yl)-3-(2-(trifluoromethyl)pyridin-4-yl)urea], the pIC50 was 8.30 in experiment [1], 7.14 in the experiment on Human IL2 promoter and 7.00 in experiment [2].

Regarding `COCC1(c2c(NC(=O)Nc3cnc(-n4nccn4)c(Cl)c3)cnc3cc(Cl)nn23)CC1` [Example 76, 1-(5-chloro-6-(2H-1,2,3-triazol-2-yl)pyridin-3-yl)-3-(2-chloro-7-(1-(methoxymethyl)cyclopropyl)pyrazolo[1,5-a]pyrimidin-6-yl)urea], the results for the negative logarithm of the IC50 (pIC50) (in experiment [1]; in the experiment on Human IL2 promoter; in experiment [2]) were 8.22, 7.55 and 7.08, respectively.

Turning to `COCC1(c2c(NC(=O)Nc3cnc(-n4nccn4)c(Cl)c3)cnc3cc(C)nn23)CC1` [Example 78, 1-(5-chloro-6-(2H-1,2,3-triazol-2-yl)pyridin-3-yl)-3-(7-(1-(methoxymethyl)cyclopropyl)-2-methylpyrazolo[1,5-a]pyrimidin-6-yl)urea], the results for the negative logarithm of the IC50 (pIC50) (in experiment [1]; with Human IL2 promoter; in experiment [2]) were 7.68, 7.12 and 6.80, respectively.

In the case of `COCC1(c2c(NC(=O)Nc3ccnc(C(F)(F)F)c3)cnc3cc(C)nn23)CC1` [Example 79, 1-(7-(1-(methoxymethyl)cyclopropyl)-2-methylpyrazolo[1,5-a]pyrimidin-6-yl)-3-(2-(trifluoromethyl)pyridin-4-yl)urea], the negative logarithm of the IC50 (pIC50) was 7.35 in experiment [1], 6.69 with Human IL2 promoter and 6.39 in experiment [2].

Consider `COCC(C)(OC)c1c(NC(=O)Nc2cnc(-n3nccn3)c(Cl)c2)cnc2cc(Cl)nn12` (stereo not drawn) [Example 81, 1-(5-chloro-6-(2H-1,2,3-triazol-2-yl)pyridin-3-yl)-3-(2-chloro-7-(1,2-dimethoxypropan-2-y)pyrazolo[1,5-a]pyrimidin-6-yl)urea], for which the pIC50 is 8.30 in experiment [1], 7.20 with Human IL2 promoter and 7.02 in experiment [2].

Regarding `CN(C)C1(c2c(NC(=O)Nc3cnc(-n4nccn4)c(Cl)c3)cnc3cc(Cl)nn23)CC1` [Example 88, 1-(5-chloro-6-(2H-1,2,3-triazol-2-yl)pyridin-3-yl)-3-(2-chloro-7-(1-(dimethylamino)cyclopropyl)pyrazolo[1,5-a]pyrimidin-6-yl)urea], the negative-log IC50 (pIC50) is 7.85 in experiment [1], 7.33 in the experiment with Human IL2 promoter and 6.99 in experiment [2].

As to `COC(c1c(NC(=O)Nc2ccnc(C(F)(F)F)c2)cnc2cc(Cl)nn12)C1CCOCC1` (stereo not drawn) [Example 90, 1-(2-chloro-7-(methoxy(tetrahydro-2H-pyran-4-yl)methyl)pyrazolo[1,5-a]pyrimidin-6-yl)-3-(2-(trifluoromethyl)pyridin-4-yl)urea], the negative logarithm of the IC50 (pIC50) in experiment [1] is 7.01; with Human IL2 promoter it was 6.03; in experiment [2], 6.16.
